According to patent US20230277630A1, “METHODS AND COMPOSITIONS FOR TREATING AMYOTROPHIC LATERAL SCLEROSIS” (Amylyx Pharmaceuticals, Inc., priority 2022, published 2023):
Values joined by “and” are separate entries in the source; they are usually repeats but may differ in a detail not shown here. Identical values can stand only once. Counter-ions that a name gives are not always drawn.

Key:
OATP1B1 = molecular target: T1, OATP1B1 (Homo sapiens, UniProt Q9Y6L6); experiment: OATP1B1 inhibitor (IC50) assessment, atorvastatin uptake in transfected HEK cells
T1 sequence (Q9Y6L6 1-691): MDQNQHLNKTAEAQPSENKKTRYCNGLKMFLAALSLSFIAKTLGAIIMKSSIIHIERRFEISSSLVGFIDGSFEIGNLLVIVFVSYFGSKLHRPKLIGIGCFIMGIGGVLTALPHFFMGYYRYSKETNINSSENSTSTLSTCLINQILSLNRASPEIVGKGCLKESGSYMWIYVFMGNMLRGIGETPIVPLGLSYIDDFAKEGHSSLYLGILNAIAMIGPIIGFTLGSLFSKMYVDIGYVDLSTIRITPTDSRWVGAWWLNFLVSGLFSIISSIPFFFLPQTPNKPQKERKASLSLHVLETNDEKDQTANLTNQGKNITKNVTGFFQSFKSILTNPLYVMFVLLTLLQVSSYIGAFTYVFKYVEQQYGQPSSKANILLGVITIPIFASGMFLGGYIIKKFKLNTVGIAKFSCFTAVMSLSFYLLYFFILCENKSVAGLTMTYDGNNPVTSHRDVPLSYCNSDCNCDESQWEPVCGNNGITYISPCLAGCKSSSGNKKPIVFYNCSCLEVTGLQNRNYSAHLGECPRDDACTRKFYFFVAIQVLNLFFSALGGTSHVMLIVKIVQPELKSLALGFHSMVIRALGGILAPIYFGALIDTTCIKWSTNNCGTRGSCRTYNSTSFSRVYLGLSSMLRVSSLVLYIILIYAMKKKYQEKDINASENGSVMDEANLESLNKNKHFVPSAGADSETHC

OATP1B3 = molecular target: T2, OATP1B3 (Homo sapiens, UniProt Q9NPD5); experiment: OATP1B3 inhibitor (IC50) assessment, atorvastatin uptake in transfected HEK cells
T2 sequence (Q9NPD5 1-702): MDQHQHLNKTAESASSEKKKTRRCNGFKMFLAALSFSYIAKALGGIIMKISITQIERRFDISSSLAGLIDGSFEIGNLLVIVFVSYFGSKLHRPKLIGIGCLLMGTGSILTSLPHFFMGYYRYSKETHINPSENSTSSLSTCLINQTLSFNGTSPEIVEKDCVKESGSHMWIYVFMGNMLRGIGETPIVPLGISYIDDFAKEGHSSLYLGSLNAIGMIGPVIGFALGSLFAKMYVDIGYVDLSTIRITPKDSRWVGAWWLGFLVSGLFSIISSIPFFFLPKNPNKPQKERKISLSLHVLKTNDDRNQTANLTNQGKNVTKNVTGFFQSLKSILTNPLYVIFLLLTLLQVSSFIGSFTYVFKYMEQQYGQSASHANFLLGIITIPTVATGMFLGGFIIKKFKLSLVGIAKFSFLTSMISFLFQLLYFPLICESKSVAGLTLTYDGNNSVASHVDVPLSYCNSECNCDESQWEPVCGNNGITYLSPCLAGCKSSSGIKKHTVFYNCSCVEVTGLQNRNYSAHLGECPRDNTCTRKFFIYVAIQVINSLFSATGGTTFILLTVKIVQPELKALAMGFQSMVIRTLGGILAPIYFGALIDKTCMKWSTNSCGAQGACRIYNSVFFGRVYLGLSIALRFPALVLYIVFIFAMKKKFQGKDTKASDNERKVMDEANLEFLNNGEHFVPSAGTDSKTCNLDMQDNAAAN

[1] = parameters: species or system male Sprague Dawley rats; settings: male, Sprague Dawley, rat, in vivo, po
Procedure: Total urine recovery data for Tenofovir, TDF, and PB was calculated for the 24 hour collection period on Days 1 and 5. […] The reported urine recovery data included amount recovered (ng) and percent recovered (%) for […]. Individual and mean Tenofovir, TDF, and PB urine recovery data were presented with SD, reported to three significant figures, and CV %, reported to one decimal place.

[2] = rat, in vivo
CYP2B6 [3] = molecular target: T3, CYP2B6 (Homo sapiens, UniProt P20813); experiment: Time-dependent inhibition (TDI) of CYP in HLM, 30 min pre-incubation ±NADPH; settings: microsomes, pH 7.4, % of Control Enzyme Activity
T3 sequence (P20813 1-491): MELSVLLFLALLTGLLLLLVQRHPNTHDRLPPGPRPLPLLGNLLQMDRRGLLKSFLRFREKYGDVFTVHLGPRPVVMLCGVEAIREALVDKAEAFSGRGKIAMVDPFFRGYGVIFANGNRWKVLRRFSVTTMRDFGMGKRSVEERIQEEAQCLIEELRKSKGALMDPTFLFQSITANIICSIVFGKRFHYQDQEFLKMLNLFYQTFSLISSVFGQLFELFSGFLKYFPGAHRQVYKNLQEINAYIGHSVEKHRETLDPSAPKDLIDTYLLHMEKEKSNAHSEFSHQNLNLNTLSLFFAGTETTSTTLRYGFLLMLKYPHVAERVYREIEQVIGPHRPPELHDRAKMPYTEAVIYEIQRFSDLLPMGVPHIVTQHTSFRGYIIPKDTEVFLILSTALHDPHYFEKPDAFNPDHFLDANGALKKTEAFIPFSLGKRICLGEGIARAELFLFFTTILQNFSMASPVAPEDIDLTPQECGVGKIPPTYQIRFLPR
Procedure: CYP TDI was evaluated by a 30-minute pre-incubation of the TA with HLM in the presence and absence of NADPH followed by the CYP enzyme activity assay. […] The total organic solvent content in the final incubation was less than 1% (DMSO ≤0.1%, other organic solvent ≤1%). The CYP reactions were initiated by adding an individual CYP probe substrate with (when NADPH was not added in the pre-incubation step) or without (when NADPH was added in the pre-incubation step) the addition of NADPH (1 mM). The reaction mixture was incubated at 37° C. for 10-30 minutes depending on the individual CYP isoform (Table 24). The reaction was terminated with ice-cold acetonitrile (ACN) containing an internal standard (IS, stable isotope-labeled CYP probe metabolite). Negative (vehicle) controls were conducted using the incubation mixture without the TA. Positive controls were performed in parallel using known CYP time-dependent inhibitors. […] The formation of individual CYP probe metabolites was determined by LC-MS/MS.
The enzyme activity was expressed as the peak area ratio of CYP probe metabolite to IS, measured by LC-MS/MS.

CYP2B6 [4] = molecular target: T3, CYP2B6; experiment: Inhibition of CYP2B6 activity in human liver microsomes; type: in vitro ADME; parameters: co-incubated with pooled HLM (0.25 mg protein/mL); from tissue; host or cells: pooled human liver microsomes
BCRP = molecular target: T4, BCRP (Homo sapiens, UniProt Q9UNQ0); experiment: BCRP IC50 assessment, bidirectional cladribine transport in BCRP-MDCK cells; settings: BCRP-MDCK cells, 10 μM cladribine alone or + TUDCA/PB Solution or 0.5 μM Ko143; single replicates
T4 sequence (Q9UNQ0 1-655): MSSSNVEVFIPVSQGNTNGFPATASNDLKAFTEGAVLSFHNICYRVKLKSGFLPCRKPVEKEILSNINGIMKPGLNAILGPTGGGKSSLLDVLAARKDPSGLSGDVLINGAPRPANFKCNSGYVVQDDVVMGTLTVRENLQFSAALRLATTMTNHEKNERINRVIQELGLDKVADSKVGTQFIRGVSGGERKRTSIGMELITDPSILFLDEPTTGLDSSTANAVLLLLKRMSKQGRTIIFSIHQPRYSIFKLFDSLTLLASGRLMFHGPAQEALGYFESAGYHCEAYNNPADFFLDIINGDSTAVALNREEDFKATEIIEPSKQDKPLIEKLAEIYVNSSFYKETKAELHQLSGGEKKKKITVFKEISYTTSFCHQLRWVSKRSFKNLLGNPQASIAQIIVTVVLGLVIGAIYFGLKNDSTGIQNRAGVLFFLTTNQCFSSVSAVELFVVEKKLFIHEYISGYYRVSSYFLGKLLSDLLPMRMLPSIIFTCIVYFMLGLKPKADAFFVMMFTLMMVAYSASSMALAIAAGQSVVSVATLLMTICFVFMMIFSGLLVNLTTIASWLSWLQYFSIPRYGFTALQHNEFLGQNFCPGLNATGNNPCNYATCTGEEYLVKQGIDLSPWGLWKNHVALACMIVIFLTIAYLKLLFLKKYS
Procedure: After 30 minutes, the pre-incubation solution was aspirated.

P-gp and BCRP = P-gp and BCRP substrate assessment, bidirectional permeability in C2BBe1 cells; settings: for AP-to-BL Papp / BL-to-AP Papp / Papp A→B at 10 µM / Papp B→A at 10 µM: C2BBe1 cells, 10 μM probe; for Papp A→B at 10 µM / recovery at 10 μM / Papp B→A at 10 µM: human; for Papp A→B at 10 µM: Caco-2, pH 7.4, AP-to-BL Papp; for Papp B→A at 10 µM: Caco-2, pH 7.4, BL-to-AP Papp
Procedure: The P-gp and BCRP substrate assessment was conducted in C2BBe1 cell monolayers. […] LY was co-dosed with each dosing solution at a nominal concentration of 200 μM.
The cell culture medium was aspirated, and the cell monolayers were rinsed once with HBSSg_7.4. […] For receiver samples, aliquots (300 μL) were taken at pre-selected time points. […] For donor samples, aliquots (50 μL) were taken at pre-selected time points without replacement.

[5] = batch used with Sol_1, Sol_3, and Sol_4, single replicates
[6] = batch used with Sol_2, single replicates
[7] = batch used with Sol_1, Sol_3, and Sol_4, Average

For `CO[C@H]1/C=C/O[C@@]2(C)Oc3c(C)c([O-])c4c(O)c(cc(O)c4c3C2=O)NC(=O)/C(C)=C\C=C\[C@H](C)[C@H](O)[C@@H](C)[C@@H](O)[C@@H](C)[C@H](OC(C)=O)[C@@H]1C.[Na+]` [RSV, rifamycin SV], the “Net Influx Rate of Atorvastatin (OATP1B1)” value (OATP1B1; […] Atorvastatin + 10 μM RSV) was 0.184 pmol/mg protein/minute, the “Percentage Inhibition of OATP1B1” value (OATP1B1; […] Atorvastatin + 10 μM RSV) was 96.7% and the “inhibition of atorvastatin uptake in OATP1B1-transfected cells” value (OATP1B1; known inhibitor) was 96.7%. For the same molecule, the “Net Influx Rate of Atorvastatin (OATP1B3)” value (OATP1B3; […] Atorvastatin + 10 μM RSV) was 0.0551 pmol/mgprotein/minute, the “Percentage Inhibition of OATP1B3” value (OATP1B3; […] Atorvastatin + 10 μM RSV) was 98.1% and the “inhibition of atorvastatin uptake in OATP1B3-transfected cells” value (OATP1B3; known inhibitor) was 98.1%.

In the case of `CC(C)OC(=O)OCOP(=O)(CO[C@H](C)Cn1cnc2c(N)ncnc21)OCOC(=O)OC(C)C` [TDF, Tenofovir Disoproxil Fumarate], the Urine concentrations [1] is reported as “Urine concentrations for PB analysis in all animals on Day 1, for TUDCA analysis in all animals on Days 1 and 5, and for TDF analysis in two animals on Day 1 and one animal on Day 5 were BLQ (<20 ng/mL) so no recovery data was calculated”.

In the case of `C[C@H](Cn1cnc2c(N)ncnc21)OCP(=O)(O)O` [Tenofovir], the “individual Tmax” value [2] is reported as 15 min.

With `S=P(N1CC1)(N1CC1)N1CC1` [Thio-TEPA] the activity at 30 min, 3.33 µM (CYP2B6 [3]; +NADPH 30 min, 3.33 μM) was 35.5%, the activity at 30 min, 10 µM (CYP2B6 [3]; +NADPH 30 min) was 18.3% and the activity at 30 min, 30 µM (CYP2B6 [3]; +NADPH 30 min) was 11.6%. For the same molecule, the activity at 30 min, 10 µM (CYP2B6 [3]; −NADPH 30 min) was 76.7%, the activity at 30 min, 30 µM (CYP2B6 [3]; −NADPH 30 min) was 54.8% and the “% of Control Enzyme Activity (n = 3) Average” value (“% of Control Enzyme Activity” below) (CYP2B6 [4]; Thio-TEPA 3.33 μM) was 66.9%. The “% of Control Enzyme Activity” value (CYP2B6 [4]; Thio-TEPA 10.0 μM) was 44.1% and the “% of Control Enzyme Activity” value (CYP2B6 [4]; Thio-TEPA 30.0 μM) was 26.7%.

With `Nc1nc(Cl)nc2c1ncn2[C@H]1C[C@H](O)[C@@H](CO)O1` [cladribine] the “BL-to-AP Papp of cladribine” value (BCRP) was 15.5 10^−6 cm/s, the “AP-to-BL Papp” value (P-gp and BCRP; [5]) was 0.549 10^−6 cm/s and 0.580 10^−6 cm/s and the “BL-to-AP Papp” value (P-gp and BCRP; [5]) was 13.3 10^−6 cm/s and 13.0 10^−6 cm/s. For the same molecule, the “AP-to-BL Papp” value (P-gp and BCRP; [6]) was 0.612 10^−6 cm/s and 0.554 10^−6 cm/s, the “BL-to-AP Papp” value (P-gp and BCRP; [6]) was 12.4 10^−6 cm/s and 13.1 10^−6 cm/s and the Papp A→B at 10 µM (P-gp and BCRP; [7]) was 0.5 ×10⁻⁶ cm/s. It also gave a Papp A→B at 10 µM (P-gp and BCRP; [5]) of 0.37 ×10⁻⁶ cm/s, a Papp A→B at 10 µM (P-gp and BCRP; batch used with Sol_2, Average) of 0.648 ×10⁻⁶ cm/s and a Papp A→B at 10 µM (P-gp and BCRP; [6]) of 0.778 ×10⁻⁶ cm/s. It also gave a recovery at 10 μM (P-gp and BCRP; Caco-2, pH 7.4, AP-to-BL Recovery) of 95.3%, a Papp B→A at 10 µM (P-gp and BCRP; [7]) of 13.5 ×10⁻⁶ cm/s and a Papp B→A at 10 µM (P-gp and BCRP; [5]) of 14.1 ×10⁻⁶ cm/s. For the same molecule, the Papp B→A at 10 µM (P-gp and BCRP; batch used with Sol_2, Average) was 12.8 ×10⁻⁶ cm/s, the Papp B→A at 10 µM (P-gp and BCRP; [6]) was 12.8 ×10⁻⁶ cm/s and the recovery at 10 μM (P-gp and BCRP; Caco-2, pH 7.4, BL-to-AP Recovery) was 92.9%.
